Experimental data from patent publication US20240336658A1, “CYCLIC PEPTIDE AND PREPARATION METHOD AND USE THEREOF” (HANGZHOU HUIBO SCIENCE AND TECHNOLOGY CO., LTD, priority 2021, published 2024).

How the values were obtained:
[1] = tested on: fibroblasts (NIH/3T3); assay: Scratching experiment, Hst1 cyclic peptides (Examples 11 and 12); assay type: cell-based; settings: dosage needed to achieve the same pharmaceutical effect in the scratch experiment
Experimental: At the same time, fibroblasts (NIH/3T3; GNM 6; Chinese Academy of Sciences, China) were plated into a 6-well plate at a number of 2×10^6/well and cultured to a density of 70-80%. The cells were starved for 8-12 hours before the experiment. Mitomycin C (Sigma Aldrich, USA) was added into the culture medium to make its concentration in the culture medium be 15 μg/ml, and the culture medium was changed after 3 hours of treatment. Scratching was conducted with a 200 μl pipette tip perpendicular to the bottom of the well-plate with the same force, and the well-plate was rinsed with PBS twice after scratching. Each well was added with an appropriate amount of a DEME medium (10% FBS, 1% double antibody), and except for the blank control group, each well was added with 10 μM of the linear Hst1, 0.01 μM of the propynylglycine-Hst1 cyclic peptide, 0.1 μM of the propynylglycine-Hst1 cyclic peptide and 1 μM of the propynylglycine-Hst1 cyclic peptide as experimental groups. At 0 hour, the cells in each group were photographed by using a microscope (Olympus, Japan). […] The scratched area of each group was calculated by using imageJ (Rawak Software, Inc. Germany) software, and the scratch area at 0 hour was an initial scratch area. The scratch healing rate was calculated as follows: […]

[2] = tested on: full-thickness skin defect wound surfaces; assay: Effects of cyclic peptide Hst1 on wound repair in mice (Example 10): healing rate, HE/Masson histology, CD31/VEGF immunohistochemistry; assay type: in vivo, C57 BL/6 mice; settings: day 10, Masson staining; 0.1 μM Click-Histatin1, 0.1 μM Sortase A-cyclic histatin1, 10 μM Histatin1
Experimental: This example adopted the propargylglycine-Hst1 cyclic peptide (Click-Histatin1) provided in Example 1, a cyclized Hst1 (Sortase A-cyclic histatin1) prepared by the Sortase A enzymatic method provided in Example 4, and a linear peptide Hst1 (Histatin1) to conduct animal experiments to observe the effect of the propargylglycine-Hst1 on the healing rates of the wound surfaces of mice. The concentration of the linear peptide Hst1 was 10 μM, the concentration of the propargylglycine-Hst1 cyclic peptide was 0.1 μM, and the concentration of the cyclized Hst1 prepared by the Sortase A enzymatic method was each 0.1 μM. 12 healthy male special pathogen-free grade C57 BL/6 mice (purchased from Guangdong Experimental Animal Center) of 6-8 weeks old and weighing 22-28 g. They were intraperitoneally injected with 5 ml/kg of 1% pentobarbital sodium for anesthesia. After the mice had no corneal reflex, the hair on their backs was carefully removed and disinfected with alcohol. […] full-thickness skin defect wound surfaces were prepared on the back of each mouse by using a circular skin punch. The 12 mice were divided into a Control (blank) group with 3 mice, a 10 μM linear peptide Hst1 (Histatin1) group with 3 mice, a 0.1 μM propynylglycine-Hst1 cyclic peptide (Click-Histatin1) group with 3 mice, and a 0.1 μM cyclized Hst1 prepared by a Sortase A enzymatic method (Sortase A-cyclic histatin1) group with 3 mice, according to a random number table method. Each wound surface was added with 0.5 ml of four drugs respectively, and administration was conducted every day until the wound surfaces of the experimental groups healed. Photographs were taken on days 0, 3, 5, 7, and 10 after surgery, and wound tissues were sampled on day 10 for subsequent pathological staining. On days 0, 3, 5, 7, and 10 after injury, the general condition of wound healing of the mice was observed and photographed with a digital camera (see FIG. 4), and the wound healing rate was calculated (see FIG. 5). Wound healing rate=(wound area immediately after injury−unhealed wound area at each time point)[…]wound area immediately after injury×100%. The wound specimens were fixed in 4% paraformaldehyde for 48 hours, rinsed with tap water for 10 minutes, dehydrated with graded ethanol, permeabilized with xylene, and embedded in paraffin to prepare 4 μm thick sections. Some sections were taken for HE staining and Masson staining, and observed for the thickness of the granulation tissue, the length of the dermal gap, and the newly grown collagen of the wound surface under an inverted fluorescence microscope at 40×, 100×, 200×, and 400× respectively (see FIGS. 6 and 7). 5 sections were taken from each mouse, and 5 fields of view were selected for each section. Data analysis was performed using the software Image-pro Plus. […] It was added with a rabbit anti-mouse CD31 primary antibody (with a dilution ratio of 1:300) and a mouse anti-VEGF (with a dilution ratio of 1:100), incubated overnight at 4° C., and washed with PBS. […] It was subjected to DAB development, hematoxylin counterstaining. gradient ethanol dehydration, xylene permeabilization, and resin blocking. 5 sections were taken from each mouse, and 5 fields of view were selected for each section. The sections were observed under a 400× inverted fluorescence microscope, and analyzed for the number of CD31-positive blood vessels (see FIG. 8) and VEGF expression amounts (see FIG. 9, shown in brown) by using Image-pro Plus software. The measurement data were expressed by M±SD, and the data were analyzed by one-way analysis of variance (ANOVA) and an independent samples T-test with SPSS 20.0 software to detect whether the differences among the groups were statistically significant, and a Bonferroni test was used for pairwise comparison. *p<0.05. **p<0.01. ***p<0.001 meant the difference was statistically significant, and p>0.05 was not statistically significant.

[3] = Solubility of prepared cyclic peptide; assay type: physicochemical

For “Sortase A-cyclic histatin1: cyclized Hst1 prepared by the literature Sortase A enzymatic method (Bolscher, FASEB Journal) (DSHEKRHHGYRRKFHEKHHSHREFPFYGDYGSNYLYDN; Histatin-1 cyclized via sortase A; UniProt P15515 20-57, looked up) [reference compound]”, the “Dosage of agents required for scratch test” value [1] was 0.12 µM, the “expression amount of collagen at the wound surfaces” value [2] was “significantly higher than that of the Control group” and the solubility [3] was “poor solubility”.
